We go through 17 molecules from patent US20230038929A1, “Fused Tricyclic Heterocyclic Compounds and Uses Thereof” (Verge Analytics, Inc., priority 2019, published 2023).

One assay deals with T1, PI3Kβ (p110β/p85α) (Homo sapiens, UniProt P42338).
T1 construct: Full-length N-terminal GST-; GST (N); host or cells: SF9 cells (baculovirus)
It counts as biochemical.

The next assay addresses T2, PI3Kα (p110α/p85α) (Homo sapiens, UniProt P42336).
T2 construct: Full-length N-terminal; FLAG (N); host or cells: SF9 cells (baculovirus)
The format is biochemical.

In the next assay the target is T3, PI3Kδ (p110δ/p85α) (Homo sapiens, UniProt O00329).
T3 construct: Full-length N-terminal GST-; GST (N); host or cells: SF9 cells (baculovirus)
T3 sequence (O00329 whole entry): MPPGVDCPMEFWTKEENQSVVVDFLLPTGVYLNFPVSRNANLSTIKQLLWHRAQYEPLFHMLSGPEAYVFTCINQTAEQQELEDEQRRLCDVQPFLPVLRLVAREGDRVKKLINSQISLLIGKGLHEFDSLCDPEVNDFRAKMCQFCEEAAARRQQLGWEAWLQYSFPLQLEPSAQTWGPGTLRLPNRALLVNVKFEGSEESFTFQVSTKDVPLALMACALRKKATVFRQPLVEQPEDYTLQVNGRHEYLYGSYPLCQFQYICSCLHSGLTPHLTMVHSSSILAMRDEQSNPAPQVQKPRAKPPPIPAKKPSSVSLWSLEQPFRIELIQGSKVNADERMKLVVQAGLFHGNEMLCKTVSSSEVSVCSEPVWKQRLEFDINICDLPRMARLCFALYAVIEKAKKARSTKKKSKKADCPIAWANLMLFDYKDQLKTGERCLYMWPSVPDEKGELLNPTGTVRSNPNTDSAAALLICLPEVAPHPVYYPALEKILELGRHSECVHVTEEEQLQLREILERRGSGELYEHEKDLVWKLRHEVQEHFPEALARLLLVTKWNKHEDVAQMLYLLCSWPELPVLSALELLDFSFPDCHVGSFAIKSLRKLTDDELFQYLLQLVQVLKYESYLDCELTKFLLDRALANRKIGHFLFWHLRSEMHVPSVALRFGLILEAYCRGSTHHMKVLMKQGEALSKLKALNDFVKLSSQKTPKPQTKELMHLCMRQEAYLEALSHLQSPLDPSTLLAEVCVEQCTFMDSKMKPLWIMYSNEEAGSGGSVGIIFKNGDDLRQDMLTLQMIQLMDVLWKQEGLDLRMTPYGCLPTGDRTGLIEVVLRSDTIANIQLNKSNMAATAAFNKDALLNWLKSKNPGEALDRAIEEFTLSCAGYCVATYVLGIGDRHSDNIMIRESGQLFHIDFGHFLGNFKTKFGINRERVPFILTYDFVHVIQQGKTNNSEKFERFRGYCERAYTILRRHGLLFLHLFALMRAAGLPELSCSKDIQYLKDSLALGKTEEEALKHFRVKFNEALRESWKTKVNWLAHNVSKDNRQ
T3 sequence (P27986 whole entry, further chain): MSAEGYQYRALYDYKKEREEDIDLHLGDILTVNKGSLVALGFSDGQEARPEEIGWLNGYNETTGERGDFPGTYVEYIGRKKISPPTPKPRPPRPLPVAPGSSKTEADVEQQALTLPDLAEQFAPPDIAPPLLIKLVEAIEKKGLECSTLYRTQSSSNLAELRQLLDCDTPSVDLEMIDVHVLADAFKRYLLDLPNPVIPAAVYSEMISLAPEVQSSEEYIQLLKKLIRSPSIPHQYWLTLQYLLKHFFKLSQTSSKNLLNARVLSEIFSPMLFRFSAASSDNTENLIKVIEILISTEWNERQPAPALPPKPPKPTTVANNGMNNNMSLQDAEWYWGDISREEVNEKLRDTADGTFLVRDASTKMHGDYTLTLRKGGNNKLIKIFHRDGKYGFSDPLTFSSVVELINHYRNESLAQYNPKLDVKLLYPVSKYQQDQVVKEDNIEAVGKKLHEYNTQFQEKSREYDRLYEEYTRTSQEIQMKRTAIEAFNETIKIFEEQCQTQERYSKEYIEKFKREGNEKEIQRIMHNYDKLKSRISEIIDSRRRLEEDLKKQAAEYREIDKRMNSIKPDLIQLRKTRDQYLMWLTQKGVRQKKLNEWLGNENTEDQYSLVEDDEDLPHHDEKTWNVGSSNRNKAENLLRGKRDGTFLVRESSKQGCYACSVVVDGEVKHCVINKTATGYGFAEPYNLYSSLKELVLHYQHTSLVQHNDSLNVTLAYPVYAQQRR
The format is biochemical.

Assay [1] addresses T4, Full length human recombinant PIKFYVE (Homo sapiens, UniProt Q9Y2I7, L932S/Q1183K/Q995L/S1033A/S696N/T998S).
T4 construct: Full length human recombinant PIKFYVE; purchased Carna Biosciences (Kobe, Japan); host or cells: baculovirus expression system (insect cells)
Put plainly: Inhibition of PIKfyve (microfluidic electrophoresis kinase assay). It counts as biochemical. The method, then:
Biological Example 1: Inhibition of PIKfyve
Full length human recombinant PIKFYVE expressed in baculovirus expression system as N-terminal GST-fusion protein (265 kDa) was obtained from Carna Biosciences (Kobe, Japan). The kinase substrate was prepared by mixing and sonicating fluorescently-labeled phosphatidylinositol 3-phosphate (PI3P) with phospho-L-serine (PS) at a 1:10 ratio in 50 mM HEPES buffer pH7.5.
The kinase reactions were assembled in 384-well plates (Greiner) in a total volume of […] as follows. Kinase protein was pre-diluted in an assay buffer comprising 25 mM HEPES, pH 7.5, 1 mM DTT, 2.5 mM MgCl2, and 2.5 mM MnCl2, and 0.005% Triton X-100, and dispensed into a 384-well plate (10 μL per well). Test compounds were serially pre-diluted in DMSO and added to the protein samples by acoustic dispensing (Labcyte Echo). The concentration of DMSO was equalized to 1% in all samples. All test compounds were tested at 12 concentrations. Apilimod was used as a reference compound and was tested in identical manner in each assay plate. Control samples (0%-inhibition, in the absence of inhibitor, DMSO only) and 100%-inhibition (in the absence of enzyme) were assembled in replicates of four and were used to calculate %-inhibition in the presence of compounds. The reactions were initiated by addition of 10 μL of 2× PI3P/PS substrate supplemented with ATP. The final concentration of enzyme was 2 nM, the final concentration of ATP was […], and the final concentration of PI3P/PS substrate was 1 μM (PI3P). The kinase reactions were allowed to proceed for 3 h at room temperature. Following incubation, the reactions were quenched by addition of […] of termination buffer (100 mM HEPES, pH 7.5, 0.01% Triton X-100, 20 mM EDTA). Terminated plates were analyzed on a microfluidic electrophoresis instrument (Caliper LabChip® 3000, Caliper Life Sciences/Perkin Elmer). The change in the relative fluorescence intensity of the PI(3)P substrate and PI(3,5)P product peaks was measured. The activity in each test sample was determined as the product to sum ratio (PSR): P/(S+P), where P is the peak height of the product, and S is the peak height of the substrate. Percent inhibition (Pinh) was determined using the following equation:
Pinh=(PSR0%inh−PSRcompound)/(PSR0%inh−P100%inh)*100
in which PSRcompound is the product/sum ratio in the presence of compound, PSR0%inh is the product/sum ratio in the absence of compound, and the PSR100%inh is the product/sum ratio in the absence of the enzyme. To determine the ICso of test compounds (50%-inhibition) the %-inh cdata (Pinh versus compound concentration) were fitted by a four-parameter sigmoid dose-response model using XLfit software (IDBS).

The test system of assay [2] is ALS patient (SOD1 A4V) iPSC derived motor neurons. Briefly: iPSC MN Survival assay (IPSC-SOD1). It counts as cell-based, human. The conditions noted are these: nutrient deprived media (HBSS), six days, maximal reduction in hazard ratio, <1.0 increased survival. The method, then:
Biological Example 4: iPSC MN Survival assay
Fibroblasts from ALS patients with known SOD1 A4V mutation were reprogrammed into inducible pluripotent stem cells (iPSC) and then differentiated to motor neurons. In culture, ALS patient derived motor neurons show increased death rate compared to motor neurons derived from healthy individuals in a stressed condition (nutrient deprived media, Hank's buffered salt solution—HBSS). […] Cell rescue was measured following more than two different concentrations of each compound for six days with greater than four replicates in a 96-well format to ensure studies with power >0.8. Cells are transduced with a GFP reporter and imaged once a day to track survival. A broad-spectrum caspase inhibitor served as the positive control.
Microscopy image-based readout: Cells are transduced with a GFP reporter and imaged once a day with a blue laser to track survival. Imagers used include the Biotek Cytation 5 and Thermo Fisher EVOS Auto FL 2. All Images undergo uniform processing consisting of rolling hat background subtraction and contrast adjustment. Microscopy images are analyzed using software proprietary to Verge. Cells are identified by their shape and each cell is tracked across images and time points for each well. Survival is visually assessed from the Kaplan-Meier curves. Survival of the cells is modeled and tested using a mixed effects Cox regression where each well is modeled as the random effect, and the group (control/treatment) as the fixed effect. […]. Data are presented in Table 7 as the maximal reduction in hazard ratio scores measured at various concentrations.

The test system of a further assay is IPSC-C9 motor neurons. Put plainly: iPSC MN Survival assay (IPSC-C9). The format is cell-based, human. To be noted: maximal reduction in hazard ratio vs control at various concentrations; <1.0 increased survival, >1.0 decreased survival.
The mark [3] stands for this setting: 1 nM enzyme, ATP 60 μM, 1 μM PIP2, 3 h room temperature, read-out: PI3Kβ IC50.
[4] abbreviates: 0.5 nM enzyme, ATP 90 μM, 1 μM PIP2, 3 h room temperature, read-out: PI3Kα IC50.
[5] abbreviates: 0.25 nM enzyme, ATP 90 μM, 1 μM PIP2, 3 h room temperature, read-out: PI3Kδ IC50.
[6] abbreviates: 2 nM enzyme, 1 μM PI3P, 3 h at room temperature, 12 concentrations, read-out: PIKfyve IC50.

Counter-ions that a name gives are not always drawn. Like-named read-outs stand apart in the source and are kept apart here.

T2 sequence (P42336 whole entry): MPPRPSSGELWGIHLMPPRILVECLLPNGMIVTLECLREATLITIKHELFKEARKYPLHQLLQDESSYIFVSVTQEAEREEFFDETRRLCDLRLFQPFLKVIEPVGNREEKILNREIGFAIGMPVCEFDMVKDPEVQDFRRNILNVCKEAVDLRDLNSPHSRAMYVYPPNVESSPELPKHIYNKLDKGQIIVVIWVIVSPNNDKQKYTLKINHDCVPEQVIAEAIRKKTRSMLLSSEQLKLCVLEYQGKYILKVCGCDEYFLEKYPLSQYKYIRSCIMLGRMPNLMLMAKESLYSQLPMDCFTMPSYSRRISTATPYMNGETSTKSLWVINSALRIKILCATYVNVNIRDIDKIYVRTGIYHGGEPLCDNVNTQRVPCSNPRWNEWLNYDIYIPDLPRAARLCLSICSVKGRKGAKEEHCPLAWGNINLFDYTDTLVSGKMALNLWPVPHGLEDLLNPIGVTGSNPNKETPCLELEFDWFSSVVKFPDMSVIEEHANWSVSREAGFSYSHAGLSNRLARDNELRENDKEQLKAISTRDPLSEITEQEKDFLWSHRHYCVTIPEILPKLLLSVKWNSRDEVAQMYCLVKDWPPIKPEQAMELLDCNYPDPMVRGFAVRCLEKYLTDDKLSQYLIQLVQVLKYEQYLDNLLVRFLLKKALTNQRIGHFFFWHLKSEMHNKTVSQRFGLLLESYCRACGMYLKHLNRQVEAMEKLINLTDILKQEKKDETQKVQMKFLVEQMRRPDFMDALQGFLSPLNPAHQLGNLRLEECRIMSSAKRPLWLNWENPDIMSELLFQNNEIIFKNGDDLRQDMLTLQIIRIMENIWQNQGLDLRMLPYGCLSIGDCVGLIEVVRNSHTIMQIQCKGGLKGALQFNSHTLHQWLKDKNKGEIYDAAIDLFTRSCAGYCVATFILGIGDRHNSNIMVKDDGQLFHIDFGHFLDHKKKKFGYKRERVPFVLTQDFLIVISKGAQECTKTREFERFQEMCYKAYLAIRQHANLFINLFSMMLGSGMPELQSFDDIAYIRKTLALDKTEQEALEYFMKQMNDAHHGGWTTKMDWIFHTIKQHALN
T2 sequence (P27986 whole entry, further chain): as the sequence (P27986 whole entry, further chain) above
T4 sequence (Q9Y2I7 whole entry S696N/L932S/Q995L/T998S/S1033A/Q1183K): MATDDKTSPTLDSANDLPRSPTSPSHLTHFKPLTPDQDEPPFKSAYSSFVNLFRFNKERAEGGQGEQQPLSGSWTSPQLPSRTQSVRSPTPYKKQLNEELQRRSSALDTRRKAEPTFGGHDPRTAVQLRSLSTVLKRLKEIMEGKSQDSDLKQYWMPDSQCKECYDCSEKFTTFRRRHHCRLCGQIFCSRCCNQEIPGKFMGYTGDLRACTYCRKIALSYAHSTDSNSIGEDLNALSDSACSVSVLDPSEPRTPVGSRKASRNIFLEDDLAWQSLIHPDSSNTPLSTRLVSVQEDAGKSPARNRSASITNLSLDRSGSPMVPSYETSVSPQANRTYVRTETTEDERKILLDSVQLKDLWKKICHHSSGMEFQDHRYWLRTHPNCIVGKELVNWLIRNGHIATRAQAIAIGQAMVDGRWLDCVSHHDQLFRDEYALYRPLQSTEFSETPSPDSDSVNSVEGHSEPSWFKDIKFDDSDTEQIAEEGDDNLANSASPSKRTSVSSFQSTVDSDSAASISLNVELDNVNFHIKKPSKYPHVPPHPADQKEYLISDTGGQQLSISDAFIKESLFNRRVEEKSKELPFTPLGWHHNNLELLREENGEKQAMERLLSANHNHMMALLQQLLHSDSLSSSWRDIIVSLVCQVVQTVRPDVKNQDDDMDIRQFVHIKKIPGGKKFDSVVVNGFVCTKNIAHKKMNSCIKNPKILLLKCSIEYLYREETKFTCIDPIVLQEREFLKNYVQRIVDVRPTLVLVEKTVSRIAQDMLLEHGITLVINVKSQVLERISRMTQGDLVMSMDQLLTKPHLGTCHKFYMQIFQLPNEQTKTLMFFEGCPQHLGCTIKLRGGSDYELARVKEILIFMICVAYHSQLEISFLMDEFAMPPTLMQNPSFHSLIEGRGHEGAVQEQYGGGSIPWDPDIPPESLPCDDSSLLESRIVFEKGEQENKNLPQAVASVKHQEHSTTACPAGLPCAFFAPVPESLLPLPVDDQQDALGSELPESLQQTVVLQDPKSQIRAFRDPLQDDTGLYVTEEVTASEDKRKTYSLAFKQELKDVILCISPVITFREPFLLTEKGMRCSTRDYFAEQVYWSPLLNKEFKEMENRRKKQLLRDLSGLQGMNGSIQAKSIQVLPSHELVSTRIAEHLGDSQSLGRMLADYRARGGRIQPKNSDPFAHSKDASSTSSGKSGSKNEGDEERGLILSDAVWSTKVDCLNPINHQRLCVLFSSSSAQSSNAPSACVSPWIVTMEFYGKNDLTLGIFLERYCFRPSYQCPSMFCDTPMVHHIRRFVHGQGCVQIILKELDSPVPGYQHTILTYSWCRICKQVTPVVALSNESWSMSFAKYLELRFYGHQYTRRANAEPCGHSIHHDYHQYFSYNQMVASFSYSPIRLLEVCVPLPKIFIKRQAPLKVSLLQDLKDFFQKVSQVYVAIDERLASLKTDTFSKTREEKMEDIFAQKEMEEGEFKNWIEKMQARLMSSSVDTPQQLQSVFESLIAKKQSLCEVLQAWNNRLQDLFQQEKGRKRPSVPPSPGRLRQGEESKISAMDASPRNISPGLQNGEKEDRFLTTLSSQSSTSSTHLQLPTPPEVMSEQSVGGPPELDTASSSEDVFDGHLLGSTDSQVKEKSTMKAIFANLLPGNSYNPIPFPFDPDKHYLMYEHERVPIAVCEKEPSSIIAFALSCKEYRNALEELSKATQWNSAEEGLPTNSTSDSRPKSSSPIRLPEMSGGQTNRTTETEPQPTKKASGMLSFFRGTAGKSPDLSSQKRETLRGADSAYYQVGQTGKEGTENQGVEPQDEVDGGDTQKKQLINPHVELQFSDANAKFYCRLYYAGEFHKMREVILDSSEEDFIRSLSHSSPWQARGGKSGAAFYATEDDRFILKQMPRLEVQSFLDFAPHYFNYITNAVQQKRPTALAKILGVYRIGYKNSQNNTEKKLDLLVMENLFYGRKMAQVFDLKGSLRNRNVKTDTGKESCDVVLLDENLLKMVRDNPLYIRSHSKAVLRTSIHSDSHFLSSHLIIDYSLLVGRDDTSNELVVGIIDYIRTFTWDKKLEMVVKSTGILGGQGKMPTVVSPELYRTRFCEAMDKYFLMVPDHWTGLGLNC

As to `Cc1cc(Nc2nc(N3CCOCC3)c3oc4ncccc4c3n2)[nH]n1` [Example 8, N-(3-Methyl-1H-pyrazol-5-yl)-4-morpholinopyrido[3′,2′:4,5]furo[3,2-d]pyrimidin-2-amine], the IC50 on PI3Kβ (p110β/p85α) (setting [3]) is 0.306 µM; at PI3Kα (p110α/p85α) (setting [4]), 0.161 µM; at PI3Kδ (p110δ/p85α) (setting [5]), 0.0239 µM; in assay [1] (setting [6]), 2.2 µM.

Turning to `Cn1ccnc1Nc1nc(N2CCOCC2)c2oc3ncccc3c2n1` [Example 12, N-(1-Methyl-1H-imidazol-2-yl)-4-morpholinopyrido[3′,2′:4,5]furo[3,2-d]pyrimidin-2-amine], the IC50 on PI3Kβ (p110β/p85α) (setting [3]) was 6.54 µM; at PI3Kα (p110α/p85α) (setting [4]), 1.64 µM; at PI3Kδ (p110δ/p85α) (setting [5]), 1.89 µM; in assay [1] (setting [6]) it was over 10 µM.

With `c1ccc(-c2cc(Nc3nc(N4CCOCC4)c4oc5ncc(CCN6CCCC6)cc5c4n3)[nH]n2)cc1` [Example 14, 4-Morpholino-N-(3-phenyl-1H-pyrazol-5-yl)-8-(2-(pyrrolidin-1-yl)ethyl)pyrido[3′,2′:4,5]furo[3,2-d]pyrimidin-2-amine], the “IPSC-SOD1 (Hazard Ratio)” value in assay [2] is 0.96. Moreover, the IC50 in assay [1] (setting [6]) turned out to be 2.32 µM. Further, in the assay on IPSC-C9 motor neurons, the “IPSC-C9 (Hazard Ratio)” value was 0.9.

As to `c1ccc(CCNc2nc(N3CCOCC3)c3oc4ncccc4c3n2)cc1` [Example 21, 4-morpholino-N-phenethylpyrido[3′,2′:4,5]furo[3,2-d]pyrimidin-2-amine], the IC50 amounted to 0.243 µM on PI3Kβ (p110β/p85α) (setting [3]), 0.158 µM on PI3Kα (p110α/p85α) (setting [4]), 0.0374 µM on PI3Kδ (p110δ/p85α) (setting [5]) and 0.988 µM in assay [1] (setting [6]).

With `O=C(Nc1nc(N2CCOCC2)c2oc3ncccc3c2n1)Oc1ccccc1` [Example 22, phenyl(4-morpholinopyrido[3′,2′:4,5]furo[3,2-d]pyrimidin-2-yl)carbamate hydrochloride], the IC50 is 2.7 µM on PI3Kβ (p110β/p85α), 0.802 µM at PI3Kα (p110α/p85α), 0.464 µM on PI3Kδ (p110δ/p85α) and 6.4 µM in assay [1].

As for `C[C@H](Nc1nc(N2CCOCC2)c2oc3ncccc3c2n1)C1CC1` [Example 36, (S)-N-(1-cyclopropylethyl)-4-morpholinopyrido[3′,2′:4,5]furo[3,2-d]pyrimidin-2-amine], the IC50 on PI3Kβ (p110β/p85α) (setting [3]) was 0.749 µM; at PI3Kα (p110α/p85α) (setting [4]) it was 0.077 µM; on PI3Kδ (p110δ/p85α) (setting [5]) it was 0.077 µM; in assay [1] (setting [6]), over 10 µM.

In the case of `c1cnc2oc3c(N4CCOCC4)nc(Nc4ccncc4)nc3c2c1` [Example 38, 4-morpholino-N-(pyridin-4-yl)pyrido[3′,2′:4,5]furo[3,2-d]pyrimidin-2-amine], the IC50 at PI3Kβ (p110β/p85α) (setting [3]) was 5.82 µM; on PI3Kα (p110α/p85α) (setting [4]), 8.74 µM; at PI3Kδ (p110δ/p85α) (setting [5]) it was 1.49 µM; in assay [1] (setting [6]), over 10 µM.

As to `c1cncc(Nc2nc(N3CCOCC3)c3oc4ncccc4c3n2)c1` [Example 39, 4-morpholino-N-(pyridin-3-yl)pyrido[3′,2′:4,5]furo[3,2-d]pyrimidin-2-amine], the IC50 on PI3Kβ (p110β/p85α) (setting [3]) worked out at 0.37 µM; at PI3Kα (p110α/p85α) (setting [4]), 0.082 µM; on PI3Kδ (p110δ/p85α) (setting [5]), 0.06 µM; in assay [1] (setting [6]), 2.18 µM.

On to `c1ccc(Nc2nc(N3CCOCC3)c3oc4ncccc4c3n2)nc1` [Example 40, 4-morpholino-N-(pyridin-2-yl)pyrido[3′,2′:4,5]furo[3,2-d]pyrimidin-2-amine], for which the IC50 on PI3Kβ (p110β/p85α) (setting [3]) stood at 1.19 µM; at PI3Kα (p110α/p85α) (setting [4]) it was 0.102 µM; at PI3Kδ (p110δ/p85α) (setting [5]), 0.066 µM; in assay [1] (setting [6]), 2.77 µM.

In the case of `c1cnc2oc3c(N4CCOCC4)nc(Nc4cncnc4)nc3c2c1` [Example 43, 4-morpholino-N-(pyrimidin-5-yl)pyrido[3′,2′:4,5]furo[3,2-d]pyrimidin-2-amine], in assay [2], the “IPSC-SOD1 (Hazard Ratio)” value turned out to be 1.1. In addition, the IC50 in assay [1] (setting [6]) was over 10 µM. In addition, the “IPSC-C9 (Hazard Ratio)” value in the assay with IPSC-C9 motor neurons worked out at 1.06.

As to `Cc1cc(Nc2nc(N3CCOCC3)c3oc4ncccc4c3n2)nn1C` [Example 47, N-(1,5-dimethyl-1H-pyrazol-3-yl)-4-morpholinopyrido[3′,2′:4,5]furo[3,2-d]pyrimidin-2-amine], the IC50 on PI3Kβ (p110β/p85α) (setting [3]) is 2.63 µM; at PI3Kα (p110α/p85α) (setting [4]), 0.082 µM; at PI3Kδ (p110δ/p85α) (setting [5]), 0.054 µM; in assay [1] (setting [6]) it was 4.32 µM. Also, the “IPSC-SOD1 (Hazard Ratio)” value in assay [2] is on record as 1.1.

Regarding `c1cnc2oc3c(N4CCOCC4)nc(Nc4cc(C5CCC5)n[nH]4)nc3c2c1` [Example 55, N-(3-cyclobutyl-1H-pyrazol-5-yl)-4-morpholinopyrido[3′,2′:4,5]furo[3,2-d]pyrimidin-2-amine hydrochloride], the IC50 at PI3Kβ (p110β/p85α) (setting [3]) was 0.315 µM; at PI3Kα (p110α/p85α) (setting [4]), 0.016 µM; on PI3Kδ (p110δ/p85α) (setting [5]), 0.007 µM; in assay [1] (setting [6]) it was 1.28 µM.

`c1cnc2oc3c(N4CCOCC4)nc(Nc4cc(CC5CCC5)n[nH]4)nc3c2c1` [Example 56, N-(3-(cyclobutylmethyl)-1H-pyrazol-5-yl)-4-morpholinopyrido[3′,2′:4,5]furo[3,2-d]pyrimidin-2-amine hydrochloride]: the IC50 worked out at 0.937 µM at PI3Kβ (p110β/p85α) (setting [3]), 0.047 µM at PI3Kα (p110α/p85α) (setting [4]), 0.024 µM at PI3Kδ (p110δ/p85α) (setting [5]) and 1.79 µM in assay [1] (setting [6]).

As to `c1csc(-c2cc(Nc3nc(N4CCOCC4)c4oc5ncccc5c4n3)[nH]n2)c1` [Example 60, 4-morpholino-N-(3-(thiophen-2-yl)-1H-pyrazol-5-yl)pyrido[3′,2′:4,5]furo[3,2-d]pyrimidin-2-amine hydrochloride], the IC50 in assay [1] (setting [6]) was determined as 0.037 µM.

Turning to `Cl.c1cnc2oc3c(N4CCOCC4)nc(Nc4cc(-c5ccsc5)n[nH]4)nc3c2c1` [Example 61, 4-morpholino-N-(3-(thiophen-3-yl)-1H-pyrazol-5-yl)pyrido[3′,2′:4,5]furo[3,2-d]pyrimidin-2-amine hydrochloride], in assay [1] (setting [6]), the IC50 was determined as 0.026 µM. The “IPSC-C9 (Hazard Ratio)” value with IPSC-C9 motor neurons is 0.542.

For the molecule `CCc1cc(Nc2nc(N3CCOCC3)c3oc4ncccc4c3n2)[nH]n1` [Example 62, N-(3-ethyl-1H-pyrazol-5-yl)-4-morpholinopyrido[3′,2′:4,5]furo[3,2-d]pyrimidin-2-amine hydrochloride], the IC50 in assay [1] (setting [6]) was 7.85 µM.

On to `CC(C)c1cc(Nc2nc(N3CCOCC3)c3oc4ncccc4c3n2)[nH]n1` [Example 63, N-(3-isopropyl-1H-pyrazol-5-yl)-4-morpholinopyrido[3′,2′:4,5]furo[3,2-d]pyrimidin-2-amine hydrochloride], for which the IC50 in assay [1] (setting [6]) is 1.85 µM.
